From publication PMC11249626, “Fluorophore-Labeled Pyrrolones Targeting the Intracellular Allosteric Binding Site of the Chemokine Receptor CCR1” (ACS Pharmacology & Translational Science, 2024)
Read-outs that look alike come from different tables or passages of the source.

Target: T1, CCR1 (Homo sapiens, UniProt P32246)
T1 sequence (P32246 1-355): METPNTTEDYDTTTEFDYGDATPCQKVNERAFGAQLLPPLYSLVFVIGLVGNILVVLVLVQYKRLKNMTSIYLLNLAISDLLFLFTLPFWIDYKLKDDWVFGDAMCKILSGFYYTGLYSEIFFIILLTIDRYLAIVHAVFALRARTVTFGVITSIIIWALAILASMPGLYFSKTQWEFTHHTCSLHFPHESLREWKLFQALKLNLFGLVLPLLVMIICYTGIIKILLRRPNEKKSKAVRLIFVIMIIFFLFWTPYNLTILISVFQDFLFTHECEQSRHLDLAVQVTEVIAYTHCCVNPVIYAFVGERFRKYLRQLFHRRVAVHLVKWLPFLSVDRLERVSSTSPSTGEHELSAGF
Assay: Membrane-based NanoBRET association and dissociation kinetic assays with 12
Format: binding
Design: Promega pNLF1-C (Nluc) #CCR010TN00; host or cells: HEK293T, transient (PEI)
Experimental: Membrane-based NanoBRET association kinetic assay: 5 µL of a solution of the fluorescent ligand (12) diluted to varying concentrations (final assay concentrations: 1–3 µM) in assay buffer and 5 µL of assay buffer were transferred to a 384-well plate. For the determination of non-specific binding, we added a solution of a non-labeled competitor dissolved in assay buffer (5, final assay concentration: 10 µM) instead. After the addition of 5 µL of a furimazine solution (final assay dilution:
1:630 in assay buffer), plates were incubated for 3 minutes in the dark at ambient temperature. Subsequently, 20 µL of the membrane preparation (3 µg total protein/well) were added (final assay volume: 35 µL). BRET ratios were measured with a CLARIOstar microplate reader using 620/10 nm and 475/30 nm emission filters over time at ambient temperature.
The obtained data were analyzed using the association kinetics (one ligand concentration) algorithm in PRISM10.2.1 (GraphPad, USA) to determine association kinetics using a pre-determined koff as a constraint.
Membrane-based NanoBRET dissociation kinetic assay: 5 µL of a solution of the fluorescent ligand (12) diluted to varying concentrations (final assay concentrations: 0.25–3 µM) in assay buffer and 5 µL of assay buffer were transferred to a 384-well plate. In order to determine non-specific binding, we added a solution of a non-labeled competitor dissolved in assay buffer (5, final assay concentration: 10 µM) instead of the 5 µL of assay buffer. Then, 20 µL of the membrane preparation (3 µg total protein/well) were added, and plates were incubated for 1 h at ambient temperature in the dark.
Subsequently, 5 µL of a furimazine solution (final assay dilution: 1:630 in assay buffer) were added. Plates were incubated for further 5 minutes in the dark at ambient temperature. Thereafter, 1 µL of a solution of a […] competitor dissolved in assay buffer (5, final assay concentration: 10 µM) was added. For control experiments, we added 1 µL of assay buffer instead of the competitor solution. BRET ratios were measured with a CLARIOstar microplate reader using 620/10 nm and 475/30 nm emission filters over time at ambient temperature. Specific BRET ratios were calculated as a difference of total and non -specific binding. […]
mM HEPES, no phenol red supplemented with 5% FBS) was added and cells were incubated at 37 °C for 30 minutes.
Then, 5 µL of a solution containing the fluorescent ligand ( 12), diluted in assay medium at varying concentrations, were added in case of saturation binding experiments. To determine non-specific binding, 5 µL of a solution of 5 dissolved in assay medium (final assay concentration: 10 µM) were added. For competition binding experiments, 5 µL of a solution of the fluorescent ligand (12) diluted in assay medium (final assay concentration: 1 µM) and 5 µL of a solution of the potential competitor (diluted from 10 mM DMSO-stock solutions with assay medium) at varying concentrations were added to the corresponding wells. After 90 min of incubation at 37 °C, 5 µL of a furimazine solution (final assay dilution: 1:2500, diluted with assay medium) were added. After a further incubation of 5 min in the dark at 37 °C, BRET ratios were measured with a CLARIOstar microplate reader using 620/10 nm and 475/30 nm emission filters. Total, non-specific and specific binding, which was calculated as a difference of total and non-specific binding, were analyzed using the algorithms for one-site saturation binding in PRISM10.2.1 (GraphPad, USA). To determine the inhibition constants (Ki) of the potential competitors, data were normalized to total and non-specific binding and analyzed using the one site-fit Ki equation in PRISM10.2.1 (GraphPad, USA).
Kinetic solubility assay: Kinetic solubility was assessed in saline phosphate buffer pH 7.25 (1.19 g Na2HPO4·12 H2O, 0.095 g KH2PO4 and 4.0 g NaCl in 0.5 L double distilled water). The pH was adjusted to 7.25 with concentrated […]
hydrochloric acid. […]

CN(C)c1ccc2c(-c3cc(C(=O)NCCOCCOCc4cn(CCCC(=O)C5=C(O)C(=O)N(c6ccc(Br)cc6F)C5C5CCCCC5)nn4)ccc3C(=O)[O-])c3ccc(=[N+](C)C)cc-3oc2c1 (stereo not drawn) [compound 12]
Kd (CCR1_Nluc membranes, from kon and koff, read-out: kinetic KD value KD(kin.)): 317 ± 32 nM | koff (CCR1_Nluc membranes, read-out: koff (converted)): 0.00233 s⁻¹ | kon (CCR1_Nluc membranes, read-out: kon (converted)): 7350 M⁻¹ s⁻¹ | residence time (CCR1_Nluc membranes, read-out: residence time tr): 7.31 ± 0.22 min | kon (association at room temperature (membranes), read-out: kon, mean (Table S1) (converted)): 7360 M⁻¹ s⁻¹ | tR, mean (Table S1) (dissociation at room temperature (membranes)): 7.31 min | koff, single experiments (Table S1) (dissociation at room temperature (membranes), 12 at 250-3000 nM): 0.001978 s⁻¹ | koff (dissociation at room temperature (membranes), 12 at 250-3000 nM, read-out: koff, single experiments (Table S1) (converted)): 0.00172 s⁻¹ | koff (dissociation at room temperature (membranes), read-out: koff, mean (Table S1) (converted)): 0.00233 s⁻¹
